Laboratory results published in US7176224B2, “Oxazolyl-aryloxyacetic acid derivatives and their use as PPAR agonists” (Eli Lilly and Company, priority 2000, dated 2007).

How the values were obtained:
[1] = target: T1, huPPARα (Homo sapiens, UniProt Q07869); assay: DNA-dependent binding (ABCD binding), SPA, radioligand displacement; details: tritium-labeled PPARα agonist radioligand
T1 sequence (Q07869 1-468): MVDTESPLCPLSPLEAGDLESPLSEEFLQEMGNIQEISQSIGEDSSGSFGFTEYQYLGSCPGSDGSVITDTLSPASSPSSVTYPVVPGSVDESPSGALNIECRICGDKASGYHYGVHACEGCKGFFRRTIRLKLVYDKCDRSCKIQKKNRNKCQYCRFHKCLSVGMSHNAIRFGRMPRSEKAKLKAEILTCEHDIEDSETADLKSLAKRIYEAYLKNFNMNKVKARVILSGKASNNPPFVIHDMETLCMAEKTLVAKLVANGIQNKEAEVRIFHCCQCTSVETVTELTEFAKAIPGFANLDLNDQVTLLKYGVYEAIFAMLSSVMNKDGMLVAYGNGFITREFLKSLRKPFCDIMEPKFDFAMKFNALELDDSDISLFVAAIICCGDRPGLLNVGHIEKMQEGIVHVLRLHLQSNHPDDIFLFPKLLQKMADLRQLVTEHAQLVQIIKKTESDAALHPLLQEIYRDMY
T1 sequence (P19793 1-462 partner): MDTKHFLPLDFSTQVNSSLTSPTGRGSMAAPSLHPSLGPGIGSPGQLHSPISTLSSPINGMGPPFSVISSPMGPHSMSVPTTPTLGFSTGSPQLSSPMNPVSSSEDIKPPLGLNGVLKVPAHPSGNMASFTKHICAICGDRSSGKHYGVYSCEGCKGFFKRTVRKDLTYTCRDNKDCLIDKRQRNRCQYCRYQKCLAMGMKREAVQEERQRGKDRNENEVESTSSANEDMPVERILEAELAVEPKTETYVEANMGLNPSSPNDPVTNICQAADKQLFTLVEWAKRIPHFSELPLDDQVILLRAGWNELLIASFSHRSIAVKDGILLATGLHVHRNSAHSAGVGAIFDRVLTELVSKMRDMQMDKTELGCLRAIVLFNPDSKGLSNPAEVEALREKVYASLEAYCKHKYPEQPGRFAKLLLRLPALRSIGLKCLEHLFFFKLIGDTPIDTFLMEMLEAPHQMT
Description: (§1) […] binding (ABCD binding) was carried out using SPA technology with PPAR receptors. Tritium-labeled PPARα and PPARγ agonists were used as radioligands for generating displacement curves and IC50 values with compounds of the invention. Cotransfection assays were carried out in CV-1 cells. The reporter plasmid contained an acylCoA oxidase (AOX) PPRE and TK promoter upstream of the luciferase reporter cDNA. Appropriate PPARs and RXRα were constitutively expressed using plasmids containing the CMV promoter. […] In order to eliminate such interference, a GAL4 chimeric system was used in which the DNA binding domain of the transfected PPAR was replaced by that of GAL4, and the GAL4 response element was utilized in place of the AOX PPRE. Cotransfection efficacy was determined relative to PPARα agonist and […] reference molecules. Efficacies were determined by computer fit to a concentration-response curve, or in some cases at a single high concentration of agonist (10 μM). For binding or cotransfection studies with receptors other than PPARs, similar assays were carried out using appropriate ligands, receptors, reporter constructs, etc., for that particular receptor.
(§2) These studies were carried out to evaluate the ability of compounds of the invention to bind to and/or activate various nuclear transcription factors, particularly huPPARα (“hu” indicates “human”) and huPPARγ. These studies provide in vitro data concerning efficacy and selectivity of compounds of the invention. Furthermore, binding and cotransfection data for compounds of the invention were compared with corresponding data for marketed compounds that act on either huPPARα or huPPARγ.

[2] = target: T2, huPPARγ (Homo sapiens, UniProt P37231); assay: as above; details: tritium-labeled PPARγ agonist radioligand
T2 sequence (P37231 1-505): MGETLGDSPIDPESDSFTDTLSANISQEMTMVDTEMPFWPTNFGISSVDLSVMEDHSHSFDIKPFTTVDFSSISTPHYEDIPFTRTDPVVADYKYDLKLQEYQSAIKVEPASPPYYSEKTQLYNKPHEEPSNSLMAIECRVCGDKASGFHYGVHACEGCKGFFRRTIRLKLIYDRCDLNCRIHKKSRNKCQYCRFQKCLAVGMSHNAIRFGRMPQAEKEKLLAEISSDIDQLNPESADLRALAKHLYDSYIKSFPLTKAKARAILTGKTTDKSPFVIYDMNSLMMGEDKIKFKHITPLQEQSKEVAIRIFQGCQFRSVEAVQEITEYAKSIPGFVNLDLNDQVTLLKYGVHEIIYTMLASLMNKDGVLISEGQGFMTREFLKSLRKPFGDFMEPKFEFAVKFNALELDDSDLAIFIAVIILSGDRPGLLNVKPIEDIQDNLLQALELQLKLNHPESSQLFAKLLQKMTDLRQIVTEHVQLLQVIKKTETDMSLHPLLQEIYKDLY
T2 sequence (P19793 1-462 partner): T1 sequence (P19793 1-462 partner)
Description: as §1, §2

IC50 [1]: 0.147 µM
IC50 [2]: 0.041 µM
Compound: Cc1oc(-c2cccc(-c3ccc(F)cc3)c2)nc1CCOc1ccc(CC(C)(Oc2ccccc2)C(=O)O)cc1 (centres unmarked) [Example 4, 3-(4-{2-[2-(4′-Fluorobiphenyl-3-yl)-5-methyloxazol-4-yl]ethoxy}phenyl)-2-methyl-2-phenoxypropionic acid]
